Results as given in patent US20090043129A1 (priority 2005, published 2009).
Read-outs that look alike come from different tables or passages of the source.

Assays:
[1] = target: T1, human recombinant CB2 receptor (Homo sapiens, UniProt P34972); test: [35S]GTP-γ-S binding, CHO cells over-expressing hCB2; format: biochemical; design: expressed in transfected cells; host or cells: CHO cells (stably over-expressing); settings: for antagonism of CP55940-induced stimulation of GTP-γ-S binding (in words) / effect on GTP-γ-S-binding (in words): CHO hCB2; for functional behaviour at CB2 receptors: Test 1 and Test 2, CHO hCB2
From the text: Results were compared to the potent CB1 and CB2 receptor agonist CP55940, purchased from Cayman Chemicals, Ann Arbour, Mich., USA.

[2] = target: T2, human recombinant CB1 receptor (Homo sapiens, UniProt P21554); test: Forskolin-induced cAMP formation in CHO cells over-expressing hCB1; format: cell-based; design: expressed in transfected cells; host or cells: CHO cells
Protocol: (§1) After incubation, 800 μl of methanol were added, cells were extracted and cyclic AMP was determined with a cyclic AMP assay kit (Amersham, UK), in accordance with the supplier's recommendations.

[3] = target: T2, human recombinant CB1 receptor; format: binding; design: purchased Perkin-Elmer; host or cells: COS cells
[4] = target: T1, human recombinant CB2 receptor; test: CB2 binding, [3H]CP55,940 displacement, membranes from transfected COS cells; design: purchased Perkin-Elmer; host or cells: COS cells; settings: values in nM
[5] = target: T3, CB1 cannabinoid receptors (Mus musculus, UniProt P47746); test: Forskolin-induced cyclic AMP in N18TG2 neuroblastoma cells; format: cell-based
T3 construct: N18TG2 mouse neuroblastoma cells, which constitutively and selectively express the CB 1 cannabinoid receptors; endogenous in cells; host or cells: N18TG2 mouse neuroblastoma cells
Protocol: as §1

[6] = target: T1, human recombinant CB2 receptor; test: Forskolin-induced cAMP formation in CHO cells over-expressing hCB2; format: cell-based; design: expressed in transfected cells; host or cells: CHO cells (stably over-expressing)
Protocol: as §1

[7] = tested on: Anandamide Membrane Transporter (AMT); test: Anandamide uptake by RBL-2H3 cells; format: cell-based; settings: anandamide uptake, read-out: AMT IC50
Protocol: Assay for the Anandamide Membrane Transporter (AMT)
The effect of the compounds on the uptake of anandamide by the RBL-2H3 cells was studied as described (Di Marzo et al., 2002). Cells were incubated with [^14C]anandamide (4 μM) for 5 minutes at 37° C., in the presence or absence of varying concentrations of the inhibitors. Residual [^14C]anandamide in the incubation media after extraction with CHCl3/CH3OH (2:1 by volume) was used as a measure of the anandamide that was taken up by cells. Data are expressed as the concentration that produces 50% of inhibition of anandamide uptake (IC50) calculated with GraphPad.

CB1 receptors = target: T4, CB1 receptors (Mus musculus, UniProt P47746); test: [35S]GTP-γ-S binding, mouse brain membranes; format: biochemical
T4 construct: using mouse brain membranes containing CB1 receptors; from tissue; host or cells: mouse brain membranes
Protocol: These assays were performed as previously described (Thomas et al., 2005), using mouse brain membranes containing CB1 receptors or CHO cells stably over-expressing the human recombinant CB2 receptor (10 μg/ml protein), 0.7 nM [^35S]GTP-γ-S and 320 μM GDP, and a final assay volume of 250 μl. Results were compared to the potent CB1 and CB2 receptor agonist CP55940, purchased from Cayman Chemicals, Ann Arbour, Mich., USA.

[8] = target: T5, Fatty Acid Amide Hydrolase (FAAH) (Rattus norvegicus, UniProt P97612); test: biochemical
T5 sequence (P97612 1-579): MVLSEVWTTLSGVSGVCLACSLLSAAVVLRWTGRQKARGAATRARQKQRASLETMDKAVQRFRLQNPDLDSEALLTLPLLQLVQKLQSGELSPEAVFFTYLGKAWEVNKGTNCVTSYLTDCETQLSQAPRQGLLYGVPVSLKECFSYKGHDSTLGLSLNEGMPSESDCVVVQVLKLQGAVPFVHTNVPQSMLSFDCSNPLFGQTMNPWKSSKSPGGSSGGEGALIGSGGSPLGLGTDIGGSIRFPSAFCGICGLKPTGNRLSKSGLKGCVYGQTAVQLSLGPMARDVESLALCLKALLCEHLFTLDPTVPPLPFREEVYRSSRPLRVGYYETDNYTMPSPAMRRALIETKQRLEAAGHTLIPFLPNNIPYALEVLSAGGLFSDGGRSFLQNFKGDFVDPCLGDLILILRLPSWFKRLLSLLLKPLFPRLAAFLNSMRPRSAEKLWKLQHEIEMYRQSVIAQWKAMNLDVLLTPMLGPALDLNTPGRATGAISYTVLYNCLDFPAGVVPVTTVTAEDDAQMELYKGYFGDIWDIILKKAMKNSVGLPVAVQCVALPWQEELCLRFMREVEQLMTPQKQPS
Protocol: Assay for Fatty Acid Amide Hydrolase (FAAH)
The effect of compounds on the enzymatic hydrolysis of [^14C]anandamide (6 μM) was studied using membranes prepared from rat brain incubated with increasing concentrations of compounds in 50 mM Tris-HCl, pH 9, for 30 minutes at 37° C. (Di Marzo et al., 2002). [^14C]ethanolamine produced from [^14C]anandamide hydrolysis was measured counting the scintillation of the aqueous phase after extraction of the incubation mixture with 2 volumes of CHCl3/CH3OH (2:1 by volume). […]

[9] = forskolin-induced cAMP formation, CHO hCB2

T1 sequence (P34972 whole entry): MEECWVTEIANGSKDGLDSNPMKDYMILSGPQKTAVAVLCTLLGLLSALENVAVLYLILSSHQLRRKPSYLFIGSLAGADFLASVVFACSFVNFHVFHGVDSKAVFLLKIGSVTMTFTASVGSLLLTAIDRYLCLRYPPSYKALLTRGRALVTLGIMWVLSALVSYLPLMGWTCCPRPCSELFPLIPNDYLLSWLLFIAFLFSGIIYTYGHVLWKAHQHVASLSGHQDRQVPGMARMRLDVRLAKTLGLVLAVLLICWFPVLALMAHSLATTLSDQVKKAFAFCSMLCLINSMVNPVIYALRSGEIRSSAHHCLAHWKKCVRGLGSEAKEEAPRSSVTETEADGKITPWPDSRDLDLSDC
T4 sequence (P47746 whole entry): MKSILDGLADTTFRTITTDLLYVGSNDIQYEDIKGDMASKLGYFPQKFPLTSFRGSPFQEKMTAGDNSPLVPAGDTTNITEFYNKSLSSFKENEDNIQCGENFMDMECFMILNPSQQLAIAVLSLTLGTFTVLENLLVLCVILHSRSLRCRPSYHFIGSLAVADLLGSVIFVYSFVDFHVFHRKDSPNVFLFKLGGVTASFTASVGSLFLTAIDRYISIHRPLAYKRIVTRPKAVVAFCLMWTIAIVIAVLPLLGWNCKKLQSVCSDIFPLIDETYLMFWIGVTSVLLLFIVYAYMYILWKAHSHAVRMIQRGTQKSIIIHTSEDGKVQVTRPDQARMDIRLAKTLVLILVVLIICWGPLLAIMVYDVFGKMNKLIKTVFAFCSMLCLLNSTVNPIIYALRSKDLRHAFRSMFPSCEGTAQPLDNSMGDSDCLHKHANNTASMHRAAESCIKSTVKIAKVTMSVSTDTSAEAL
T2 sequence (P21554 whole entry): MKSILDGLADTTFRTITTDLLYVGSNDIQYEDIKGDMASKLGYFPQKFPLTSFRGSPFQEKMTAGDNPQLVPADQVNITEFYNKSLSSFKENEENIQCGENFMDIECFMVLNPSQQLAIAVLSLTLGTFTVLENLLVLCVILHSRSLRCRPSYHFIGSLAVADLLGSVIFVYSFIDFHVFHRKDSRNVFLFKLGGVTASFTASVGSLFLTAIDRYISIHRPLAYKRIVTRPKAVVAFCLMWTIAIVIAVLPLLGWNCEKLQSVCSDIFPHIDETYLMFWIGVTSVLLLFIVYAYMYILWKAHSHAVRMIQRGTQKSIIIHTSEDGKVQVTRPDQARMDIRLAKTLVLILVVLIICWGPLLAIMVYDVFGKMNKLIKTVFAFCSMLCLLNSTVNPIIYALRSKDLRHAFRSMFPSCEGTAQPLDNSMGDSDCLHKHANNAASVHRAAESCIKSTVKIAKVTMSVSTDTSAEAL
T3 sequence (P47746 whole entry): as the sequence (P47746 whole entry) above

| Compound | antagonism of CP55940-induced stimulation of GTP-γ-S binding (in words) [1] | effect on GTP-γ-S-binding (in words) [1] | functional behaviour at CB2 receptors [1] | Ki [4] | hCB2 % effect with 10 μM [6, 9] | effect on forskolin-induced cAMP formation (in words) ([6]; CHO hCB2) | IC50 [7] | functional behaviour in GTP-γ-S-binding (CB1 receptors; mouse brain membranes) | other results |
| --- | --- | --- | --- | --- | --- | --- | --- | --- | --- |
| CCCCCc1cc(O)cc(OCCCCCCCCCCC(=O)NC2CC2)c1 [Compound 25, 11-(3-Hydroxy-5-pentyl-phenoxy)-undecanoic acid cyclopropylamide] | block the effect of CP55940 | no significant stimulation or inhibition | neutral (“silent”) antagonists | 13 nM | 26% | no significant effect | 17000 nM | agonist action | EC50 [2]: 1600 nM; hCB1 % effect with 10 μM ([2]; 10 μM, forskolin-induced cAMP formation, CHO hCB1): 63%; functional behaviour at human recombinant CB1 ([2]; Test 1, CHO hCB1, inhibit forskolin-induced cAMP formation): partial agonists; Ki [3]: 5.2 nM; EC50 [5]: 13 nM; functional behaviour at CB1 receptors ([5]; N18TG2 cells, cAMP): inverse agonist/antagonist; EC50 [6]: > 10000 nM; IC50 (CB1 receptors; mouse brain membranes, read-out: IC50, stimulation of GTP-γ-S-binding): 150 nM; IC50 [8]: > 10000 nM |
| CCCCCCc1ccc(O)cc1OCCCCCCCCCCC(=O)NC1CC1 [Compound 52, 11-(2-Hexyl-5-hydroxy-phenoxy)-undecanoic acid cyclopropylamide] | block the effect of CP55940 | no significant stimulation or inhibition | neutral (“silent”) antagonists | 30 nM | 5% | no significant effect | 13000 nM | agonist action | EC50 ([2]; read-out: hCB1 EC50): 2400 nM; Ki ([3]; values in nM): 210 nM; EC50 ([6]; forskolin-induced cAMP formation, CHO hCB2, read-out: hCB2 EC50): > 10000 nM; IC50 (CB1 receptors): 100 nM |
